The target of experiment [1] is T1, Peroxisome proliferator-activated receptor alpha (Homo sapiens) (UniProt Q07869).
T1 sequence (whole entry): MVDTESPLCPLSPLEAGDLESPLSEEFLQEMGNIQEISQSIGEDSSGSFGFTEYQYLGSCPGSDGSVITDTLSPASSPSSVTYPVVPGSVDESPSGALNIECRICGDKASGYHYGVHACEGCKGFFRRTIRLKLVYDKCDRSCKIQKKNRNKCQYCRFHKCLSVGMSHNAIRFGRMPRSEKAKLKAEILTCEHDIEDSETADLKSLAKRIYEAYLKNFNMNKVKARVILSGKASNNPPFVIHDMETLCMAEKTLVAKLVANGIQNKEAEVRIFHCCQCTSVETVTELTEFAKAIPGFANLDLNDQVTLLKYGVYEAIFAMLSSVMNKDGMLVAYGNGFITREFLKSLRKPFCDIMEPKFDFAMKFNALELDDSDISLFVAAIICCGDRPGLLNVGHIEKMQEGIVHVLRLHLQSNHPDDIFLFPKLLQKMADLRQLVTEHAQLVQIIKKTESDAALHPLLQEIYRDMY
As to the kind of experiment: Agonist activity at human PPARalpha by transactivation assay relative to NNC61-4655. The experiment is classed as functional.

The target of experiment [2] is T2, Peroxisome proliferator-activated receptor delta (Homo sapiens, UniProt Q03181).
T2 sequence (Q03181 whole entry): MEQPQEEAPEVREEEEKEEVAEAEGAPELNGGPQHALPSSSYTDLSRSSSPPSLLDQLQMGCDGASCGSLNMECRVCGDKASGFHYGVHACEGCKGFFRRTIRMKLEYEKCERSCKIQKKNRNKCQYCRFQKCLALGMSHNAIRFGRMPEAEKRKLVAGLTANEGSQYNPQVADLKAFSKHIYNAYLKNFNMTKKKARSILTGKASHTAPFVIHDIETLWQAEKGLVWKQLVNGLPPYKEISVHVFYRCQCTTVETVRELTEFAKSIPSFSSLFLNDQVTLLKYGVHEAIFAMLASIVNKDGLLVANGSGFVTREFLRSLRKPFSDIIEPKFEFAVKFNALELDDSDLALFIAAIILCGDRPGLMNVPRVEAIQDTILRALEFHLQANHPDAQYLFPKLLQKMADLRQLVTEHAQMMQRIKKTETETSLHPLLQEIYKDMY

The target of experiment [3] is T3, Peroxisome proliferator-activated receptor gamma (Homo sapiens, UniProt P37231).
T3 sequence (P37231 whole entry): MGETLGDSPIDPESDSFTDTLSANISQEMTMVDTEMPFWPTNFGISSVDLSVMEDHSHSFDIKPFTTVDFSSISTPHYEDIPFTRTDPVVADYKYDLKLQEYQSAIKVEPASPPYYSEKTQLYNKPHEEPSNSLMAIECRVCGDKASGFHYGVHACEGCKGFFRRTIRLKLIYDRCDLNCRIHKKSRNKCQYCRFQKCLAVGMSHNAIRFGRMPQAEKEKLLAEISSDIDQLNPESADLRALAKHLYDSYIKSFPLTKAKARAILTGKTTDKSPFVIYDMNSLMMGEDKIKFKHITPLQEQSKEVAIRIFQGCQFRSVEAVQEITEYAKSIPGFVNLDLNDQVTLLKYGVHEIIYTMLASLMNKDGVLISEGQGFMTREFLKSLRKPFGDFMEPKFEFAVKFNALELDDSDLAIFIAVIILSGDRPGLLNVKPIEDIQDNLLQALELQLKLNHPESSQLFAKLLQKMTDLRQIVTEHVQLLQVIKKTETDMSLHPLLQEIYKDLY
The experiment is classed as functional.

In experiment [4] the target is T4, Peroxisome proliferator-activated receptor alpha (Homo sapiens, UniProt Q07869).
T4 sequence (Q07869 whole entry): T1 sequence (whole entry)
As to the kind of experiment: Agonist activity at human PPARalpha by transactivation assay. It counts as functional.

A value given as a limit tells only on which side of the number the result lay.

In general, EC50 refers to the concentration giving half of the maximal effect. A high value points to a need for much substance.

With `O=C(O)COc1ccc(Sc2cc(C#CCN3CCOCC3)nc(C#Cc3ccc(C(F)(F)F)cc3)c2)c2c1CCC2`, the Activity in experiment [1] was below 10%. This molecule also gave an EC50 in experiment [2] of 130 nM.

For `Cc1cc(SCc2sc(-c3ccc(C(F)(F)F)cc3)nc2C)ccc1OCC(=O)O`, the Activity in experiment [1] amounted to 68%.

`Cc1cc(Sc2cc(C#CCN3CCOCC3)nc(C#Cc3ccc(C(F)(F)F)cc3)c2)ccc1OCC(=O)O` yielded an Activity in experiment [1] of 50%. The EC50 in experiment [2] came to 50 nM; in experiment [3] it was 5500 nM; in experiment [4] it was 100 nM.
